Reference: patent US20150183802A1, “TRICYCLIC SULFONAMIDE DERIVATIVES” (NOVARTIS AG, priority 2013, published 2015)

Molecular target: T1, hNav1.7 channels (Homo sapiens, UniProt Q15858)
T1 construct: host or cells: HEK293
Assay: hNav1.7 channel in vitro patch-clamp assay
Type: cell-based
Settings: stable HEK293 cell line expressing hNav1.7; for IC50: whole cell patch-clamp (QPatch HTX and/or conventional), room temperature, voltage protocol not given
Protocol: hNav1.7 Channel In Vitro Patch-Clamp Assay
Cells: Sable HEK293 (human embryonic kidney) cell line expressing hNav1.7 channels was used in the assay. The cell line was obtained from Millipore (Millipore Corporation, MA).
Patch-clamp recordings: The recordings were performed on QPatch HTX (Sophion Bioscience, Denmark) and/or conventional patch-clamp (Axon Multiclamp 700B systems, Molecular Devices, CA) platforms at room temperature, using whole cell patch-clamp techniques. The composition of extracellular solution was (in mM): HEPES 5, NaCl 40, KCl 3, CaCl2 1, MgCl2 1, Choline Chloride 100. Adjust pH to 7.2 with 1N NaOH, osmolarity to 300-310 mOsm with sucrose. The composition of intracellular solution was (in mM): HEPES 10, NaCl 10, Na2ATP 1, MgCl2 2, KF 135, EGTA 10. Adjust pH to 7.2 with 1N NaOH, osmolarity to 290-300 mOsm with sucrose.
For conventional patch-clamp, 35 mm culture dishes containing hNav1.7 cells were placed on the stage of an inverted microscope and continuously perfused with extracellular solution from a perfusion system (Biologic Rapid solution changer, RSC-160, ˜1 ml/min). […] The recordings were controlled by pCLAMP10 software. Test compounds were dissolved in 100% DMSO to make stock solutions for each test concentration, and then diluted into extracellular solution to achieve final concentration for testing. Final DMSO concentration was less than 0.3%. Two voltage protocols were used in hNav1.7 assay: for non-inactivated protocol, the sodium currents were elicited by a 2 ms pulse to −10 mV from a holding potential of −110 mV. For inactivated protocol, the holding potential was set at V1/2. The voltage was firstly stepped to −110 mV for 50 ms, then to −10 mV for 2 ms and then stepped back to holding potential. In both protocols the voltage command was given in every 10 s. Compound effect (% inhibition) was determined by difference in current amplitude before and after the application of test compounds. IC50 values were determined from concentration-response curves that were obtained with Hill fitting.
For QPatch HTX assay, hNav1.7 cells grown to 50%-80% confluence were rinsed with DPBS and dissociated with Tryple (Invitrogen, 12605-010). The dissociated cells were then mixed with extracellular solution. After centrifuge, the cells were resuspended in extracellular solution and used in the QPatch experiment. The whole-cell protocols, voltage protocols and application protocols were established with QPatch Assay Software 3.4 (Sophion Bioscience, Denmark). Only the inactivated protocol was used in the QPatch assay.

T1 sequence (Q15858 whole entry): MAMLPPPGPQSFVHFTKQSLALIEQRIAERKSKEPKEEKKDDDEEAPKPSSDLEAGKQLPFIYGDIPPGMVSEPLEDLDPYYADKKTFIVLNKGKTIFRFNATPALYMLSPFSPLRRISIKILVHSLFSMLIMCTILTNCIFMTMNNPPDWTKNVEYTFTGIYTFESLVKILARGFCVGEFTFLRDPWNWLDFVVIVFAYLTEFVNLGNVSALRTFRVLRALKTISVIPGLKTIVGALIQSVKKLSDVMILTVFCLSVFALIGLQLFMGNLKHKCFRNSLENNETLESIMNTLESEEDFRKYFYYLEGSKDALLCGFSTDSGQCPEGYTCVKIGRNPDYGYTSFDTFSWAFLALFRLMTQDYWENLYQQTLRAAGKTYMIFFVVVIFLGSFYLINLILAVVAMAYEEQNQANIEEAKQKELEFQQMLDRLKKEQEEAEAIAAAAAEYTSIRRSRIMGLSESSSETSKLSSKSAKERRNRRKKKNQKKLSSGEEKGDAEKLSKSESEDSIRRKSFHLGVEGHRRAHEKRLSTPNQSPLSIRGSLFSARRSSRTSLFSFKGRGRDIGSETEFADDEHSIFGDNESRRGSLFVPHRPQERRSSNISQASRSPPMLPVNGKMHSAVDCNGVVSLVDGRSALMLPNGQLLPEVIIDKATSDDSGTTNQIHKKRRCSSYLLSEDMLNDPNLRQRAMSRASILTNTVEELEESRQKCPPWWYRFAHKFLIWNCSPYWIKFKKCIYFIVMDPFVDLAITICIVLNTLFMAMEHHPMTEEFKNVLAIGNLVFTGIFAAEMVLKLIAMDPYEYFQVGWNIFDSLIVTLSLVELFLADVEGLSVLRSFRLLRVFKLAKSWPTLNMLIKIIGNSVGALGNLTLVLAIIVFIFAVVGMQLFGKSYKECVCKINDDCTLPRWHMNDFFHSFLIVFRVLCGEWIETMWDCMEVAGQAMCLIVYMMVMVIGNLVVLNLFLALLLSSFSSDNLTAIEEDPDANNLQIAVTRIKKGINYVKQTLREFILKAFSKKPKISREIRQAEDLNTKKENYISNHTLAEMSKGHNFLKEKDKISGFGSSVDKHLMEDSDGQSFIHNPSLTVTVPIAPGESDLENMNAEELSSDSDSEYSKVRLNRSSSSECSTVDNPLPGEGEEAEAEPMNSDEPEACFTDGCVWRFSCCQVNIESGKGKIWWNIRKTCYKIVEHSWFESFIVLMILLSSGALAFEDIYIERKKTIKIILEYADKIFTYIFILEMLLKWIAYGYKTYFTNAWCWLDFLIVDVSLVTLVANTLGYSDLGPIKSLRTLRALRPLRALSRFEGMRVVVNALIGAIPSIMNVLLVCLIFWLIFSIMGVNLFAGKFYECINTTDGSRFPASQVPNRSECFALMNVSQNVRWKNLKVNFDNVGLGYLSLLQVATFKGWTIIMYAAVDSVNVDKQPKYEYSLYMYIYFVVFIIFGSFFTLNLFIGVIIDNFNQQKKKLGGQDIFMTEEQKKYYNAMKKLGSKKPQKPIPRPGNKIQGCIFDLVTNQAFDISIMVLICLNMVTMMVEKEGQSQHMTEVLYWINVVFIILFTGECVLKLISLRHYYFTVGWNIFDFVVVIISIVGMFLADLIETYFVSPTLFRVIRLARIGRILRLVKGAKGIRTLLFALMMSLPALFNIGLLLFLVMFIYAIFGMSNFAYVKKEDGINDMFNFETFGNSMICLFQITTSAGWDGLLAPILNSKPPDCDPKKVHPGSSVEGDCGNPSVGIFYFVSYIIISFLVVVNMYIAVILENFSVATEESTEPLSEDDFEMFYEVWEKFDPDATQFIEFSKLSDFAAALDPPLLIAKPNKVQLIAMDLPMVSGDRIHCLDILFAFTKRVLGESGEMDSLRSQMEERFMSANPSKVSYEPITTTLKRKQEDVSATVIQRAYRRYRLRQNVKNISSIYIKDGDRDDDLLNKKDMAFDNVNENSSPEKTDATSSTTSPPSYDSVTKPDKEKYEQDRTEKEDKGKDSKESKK

Row | SMILES | IC50 [nM] | activity in the hNav1.7 patch-clamp assay (in words) (whole cell patch-clamp)
1 | CC(C)COc1ncc(-n2cc(C(N)=O)c3cc4c(NS(=O)(=O)C5CC5)noc4cc32)cc1Cl [Example 49, 7-(5-chloro-6-isobutoxypyridin-3-yl)-3-(cyclopropanesulfonamido)-7H-isoxazolo[4,5-f]indole-5-carboxamide] | 1180 | 
2 | CC(C)COc1ncc(-c2nccc3cc4c(NS(=O)(=O)C5CC5)noc4cc23)cc1Cl [Example 50, N-(8-(5-chloro-6-isobutoxypyridin-3-yl)isoxazolo[4,5-g]isoquinolin-3-yl)cyclopropanesulfonamide] | 110 | 
3 | CC(C)COc1ncc(-c2nccc3cc4c(NS(C)(=O)=O)noc4cc23)cc1Cl [Example 51, N-(8-(5-chloro-6-isobutoxypyridin-3-yl)isoxazolo[4,5-g]isoquinolin-3-yl)methanesulfonamide] | 300 | 
4 | O=S(=O)(Nc1noc2cc3c(-c4ccc(Cl)c(Cl)c4)nccc3cc12)C1CC1 [Example 52] | 800 | 
5 | CC(C)COc1ncc(-c2nccc3cc4c(NS(=O)(=O)N(C)C)noc4cc23)cc1Cl [Example 53, N-(8-(5-chloro-6-isobutoxypyridin-3-yl)isoxazolo[4,5-g]isoquinolin-3-yl)N—N-dimethylsulfamide] | 1070 | 
6 | CC(C)COc1ncc(-c2ccnc3cc4c(NS(=O)(=O)C5CC5)noc4cc23)cc1Cl [Example 55, N-(8-(5-chloro-6-isobutoxypyridin-3-yl)isoxazolo[5,4-g]quinolin-3-yl)cyclopropanesulfonamide] | 850 | 
7 | CC(C)COc1ncc(-c2cncc3cc4c(NS(C)(=O)=O)noc4cc23)cc1Cl [Example 57, N-(8-(5-chloro-6-isobutoxypyridin-3-yl)isoxazolo[5,4-g]isoquinolin-3-yl)methanesulfonamide] | 2360 | 
8 | CC(C)COc1ncc(-c2cccc3cc4c(NS(=O)(=O)C5CC5)noc4cc23)cc1Cl [Example 58, N-(8-(5-chloro-6-isobutoxypyridin-3-yl)naphtho[2,3-d]isoxazol-3-yl)cyclopropanesulfonamide] | 10 | 
9 | Cc1cnc(-c2cnc(OCC(C)C)c(Cl)c2)c2cc3onc(NS(=O)(=O)C4CC4)c3cc12 [Example 60, N-(8-(5-chloro-6-isobutoxypyridin-3-yl)-5-methylisoxazolo[4,5-g]isoquinolin-3-yl)cyclopropanesulfonamide] | 1870 | 
10 | Cc1cc2cc3c(NS(=O)(=O)C4CC4)noc3cc2c(-c2cnc(OCC(C)C)c(Cl)c2)n1 [Example 61, N-(8-(5-chloro-6-isobutoxypyridin-3-yl)-6-methylisoxazolo[4,5-g]isoquinolin-3-yl)cyclopropanesulfonamide] | 510 | 
11 | CC(C)COc1ncc(N2C(=O)C3(CC3)Oc3cc4c(NS(=O)(=O)C5CC5)noc4cc32)cc1Cl [Example 62, N-(8′-(5-chloro-6-isobutoxypyridin-3-yl)-7′-oxo-7′,8′-dihydrospiro[cyclopropane-1,6′-isoxazolo[5′,4′:4,5]benzo[1,2-b][1,4]oxazin]-3′-yl)cyclopropanesulfonamide] | 100 | 
12 | CC(C)COc1ncc(N2CCOc3cc4c(NS(C)(=O)=O)noc4cc32)cc1Cl [Example 63, N-(8-(5-chloro-6-isobutoxypyridin-3-yl)-7,8-dihydro-6H-isoxazolo[5′,4′:4,5]benzo[1,2-b][1,4]oxazin-3-yl)methanesulfonamide] | 530 | 
13 | CC(C)COc1ncc(N2C(=O)C3(CC3)c3cc4c(NS(=O)(=O)N5CCC5)noc4cc32)cc1Cl [N-(7′-(5-chloro-6-isobutoxypyridin-3-yl)-6′-oxo-6′,7′-dihydrospiro[cyclopropane-1,5′-isoxazolo[4,5-f]indol]-3′-yl)azetidine-1-sulfonamide] |  | did not show any activity
